Reference: patent US6610716B2, “Cyanomethyl substituted thiazoliums and imidazoliums and treatments of disorders associated with protein aging” (Alteon Incorporated, priority 2000, dated 2003)
Structures can show the parent of a compound that is named as a salt. One block for each molecule: values may come before it.

Key:
[1] = system: TGFbeta; experiment: In situ hybridization studies; format: in vivo
From the text: (§1) Cardiovascular risk correlates more closely with the systolic and the pulse pressure than with the diastolic pressure. In diabetic patients, the cardiovascular risk profile of diabetic patients is strongly correlated to duration of diabetes, glycemic control and blood pressure. Structural matrix proteins contribute to the function of vessels and the heart, and changes in the physical behavior of cardiovascular walls are believed to be important determinants of circulatory function. In elderly individuals, the loss of compliance in the aorta leads to isolated systolic hypertension, which in turn expands the arterial wall and thereby diminishes the dynamic range of elasticity. […] Treatment with 3-[2-phenyl-2-oxoethyl]-4,5-dimethyl-thiazolium salt lead to a reduction in the mass of collagen in cardiovascular tissues.

[2] = system: Type IV collagen; experiment: In situ hybridization studies; format: in vivo
From the text: as §1

[3] = Phase Ia clinical trial; format: in vivo, human
From the text: When the heart pumps blood into the vascular system, the ability of the arteries to expand helps to push blood through the body. When arteries become stiff, as they do in the natural process of aging. the ability of the arteries to expand is diminished and also has consequences for the heart. The heart has to work harder to pump the blood into the stiff arteries, and eventually hypertrophies (enlarges in size) to accomplish this. A hypertrophied heart is an inefficient pump, and is one of the disorders that leads to congestive heart failure. […] The potential clinical benefit of this is to lessen the effort that the heart must expend to push blood throughout the body. The effect is also believed to contribute to preventing hypertrophy and subsequent inefficiency of the heart, which inefficiency would contribute to congestive heart failure.
Atherosclerosis is a disease that involves deposition of blood lipids in plaque in the arteries throughout the body. In coronary arteries, accumulation of plaque progressively leads to reduced coronary flow, with occlusion of the arteries causing focal death of cardiac tissue (myocardial infarction, heart attack). If the amount of tissue that dies is large enough, death ensures. In a Phase Ia trial, one compound believed to work by a mechanism shared by the compounds of the invention, 3-[2-phenyl-2-oxoethyl]-4,5-dimethyl-thiazolium salt, […] the amount of circulating triglycerides (lipids). […] Reducing local deposits of plaque should eventually lessen the risk of myocardial infarction and death due to heart attacks.
Pulse pressure is the difference between systolic and diastolic blood pressure. In a young human, systolic pressure is typically 120 mm Hg and diastolic pressure is 80 mm Hg, resulting in a pulse pressure of 40 mm Hg. With age, in many individuals pulse pressure increases, largely due to the increase in systolic pressure that results from stiff vessel disease. In individuals with pulse pressure greater than 60 mm Hg there is an increased risk of death from cardiovascular morbidities.

[4] = In vivo studies of vascular stiffening and cardiovascular collagen; parameters: species or system rodents, canines and primates
From the text: as §1

[5] = Dog model for diabetes, indicators of ventricular elasticity; format: in vivo
From the text: as §1

[6] = diabetic rats; cited from earlier work
[7] = in vivo; cited from earlier work
[8] = streptozotocin-diabetic rat model; cited from earlier work
[9] = system: red blood cells; settings: in vivo; cited from earlier work
[10] = use of chlorhexidine; cited from earlier work

melting point: 184 to 186 °C (dec.)
Compound: Cc1sc[n+](CC#N)c1C.[Br-]

melting point: 215 to 217 °C (dec.)
Compound: N#CC[n+]1csc2c1CCCC2.[Br-]

Compound: Cc1sc[n+](CC(=O)c2ccccc2)c1C [3-[2-phenyl-2-oxoethyl]-4,5-dimethyl-thiazolium salt]
expression of TGFbeta [1]: reduces the expression | expression of Type IV collagen [2]: reduces the expression | stiffness of arteries, as measured by the ratio of stroke volume (ml) to pulse pressure (mm Hg) ([3]; Phase Ia clinical trial): reverse the stiffness of arteries | amount of circulating triglycerides (lipids) ([3]; Phase Ia trial): increased | systolic blood pressure ([3]; Phase Ia trial, believed primary cause of the pulse pressure decrease): lowering the systolic blood pressure | pulse pressure ([3]; Phase Ia trial, elderly patients with pulse pressures greater than 60 mm Hg, statistically significant): reduced pulse pressure | mass of collagen in cardiovascular tissues ([4]; in vivo): reduction | vascular stiffening ([4]; in vivo studies in rodents, canines and primates): substantially ameliorating vascular stiffening | end diastolic pressure [5]: returned to a value at about the mid-point between the disease impaired value and the value for control dogs | end diastolic volume [5]: returned to a value at about the mid-point between the disease impaired value and the value for control dogs

Compound: N=C(N)NN [aminoguanidine]
aortic wall protein cross-linking [6]: diminishes | immunoglobulin trapping in the kidney [7]: reduction | increased glomerular basement membrane thickness [8]: prevented | diabetes-induced changes in the deformability of red blood cells [9]: prevent, treat or reverse such changes

Compound: [H]/N=C(\N/C(=N/[H])NCCCCCCNC(=N)NC(=N)Nc1ccc(Cl)cc1)Nc1ccc(Cl)cc1 [chlorhexidine]
dental pellicle [10]: increased dental pellicle
